Consider 43 compounds from ChEMBL document CHEMBL5375978, “Harnessing the Reactivity of Duclauxin toward Obtaining hPTP1B1-400 Inhibitors” (J Med Chem, 2023).

Activity calls are given as the source filed them. The rule behind the calls is not given here.

For the first assay, the target named is T1, Tyrosine-protein phosphatase non-receptor type 1 (Homo sapiens, UniProt P18031).
T1 sequence (P18031 whole entry): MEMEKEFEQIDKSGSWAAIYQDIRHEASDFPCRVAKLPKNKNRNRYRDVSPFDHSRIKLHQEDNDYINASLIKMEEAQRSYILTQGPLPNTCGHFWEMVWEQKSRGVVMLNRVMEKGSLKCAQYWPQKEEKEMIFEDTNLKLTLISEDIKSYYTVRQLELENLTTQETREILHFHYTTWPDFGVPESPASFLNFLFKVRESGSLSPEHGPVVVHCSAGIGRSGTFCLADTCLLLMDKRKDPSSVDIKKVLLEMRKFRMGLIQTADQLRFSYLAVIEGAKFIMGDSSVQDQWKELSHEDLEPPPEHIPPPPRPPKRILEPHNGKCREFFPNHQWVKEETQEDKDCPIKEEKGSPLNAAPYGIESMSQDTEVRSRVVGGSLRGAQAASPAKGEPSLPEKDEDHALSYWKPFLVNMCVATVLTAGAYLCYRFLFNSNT
Put plainly: Inhibition of wild type N-terminal 6 his tagged human PTP1B (1 to 400 residues) expressed in Escherichia coli (Rosetta, DE3) using p-NPP as substrate preincubated for 10 mins followed by substrate addition and measured after 20 mins by absorbance based analysis.
Settings: not given
As for `CC(=O)O[C@H]1[C@@H]2C(=O)c3c(C)cc(O)c4c3[C@@]1(COC4=O)C1=C2c2c(C)cc(O)c3c(=O)n(-c4ccccc4O)cc(c23)C1=O`, the IC50 worked out at 13.2 µM.
`CC(=O)O[C@H]1[C@@H]2C(=O)c3c(C)cc(O)c4c3[C@@]1(COC4=O)C1=C2c2c(C)cc(O)c3c(=O)n(-c4cnc5ccccc5c4)cc(c23)C1=O` yielded an IC50 of 23.3 µM.
`CC(=O)O[C@H]1[C@@H]2C(=O)c3c(C)cc(O)c4c3[C@@]1(COC4=O)C1=C2c2c(C)cc(O)c3c(=O)n(-c4cc(C)ccn4)cc(c23)C1=O` showed an IC50 of 15.7 µM.
`CC(=O)O[C@H]1[C@@H]2C(=O)c3c(C)cc(O)c4c3[C@@]1(COC4=O)C1=C2c2c(C)cc(O)c3c(=O)n(-c4ccccc4I)cc(c23)C1=O`: half-maximal inhibition (IC50) required 17.5 µM.
`CC(=O)O[C@H]1[C@@H]2C(=O)c3c(C)cc(O)c4c3[C@@]1(COC4=O)c1c(O)c(C=O)c3cc(O)cc(C)c3c12`: it took 3.5 µM to reach half-maximal inhibition (IC50).
The compound `CO[C@@]12c3c(C)cc(O)c4c(=O)n(-c5ccc(Br)cc5)cc(c34)C(=O)[C@@H]1[C@]13COC(=O)c4c(O)cc(C)c(c41)C(=O)[C@H]2[C@@H]3OC(C)=O` gave an IC50 of 47.4 µM.
Take `CO[C@@]12c3c(C)cc(O)c4c(=O)n(-c5ccc([N+](=O)[O-])cc5)cc(c34)C(=O)[C@@H]1[C@]13COC(=O)c4c(O)cc(C)c(c41)C(=O)[C@H]2[C@@H]3OC(C)=O`: the IC50 is 7.7 µM.
The same measure, in the same setting: the figure for `CC(=O)O[C@H]1[C@@H]2C(=O)c3c(C)cc(O)c4c3[C@@]1(COC4=O)C1=C2c2c(C)cc(O)c3c(=O)n(-c4ncccc4C)cc(c23)C1=O` is 32.3 µM; for `CC(=O)O[C@H]1[C@@H]2C(=O)c3c(C)cc(O)c4c3[C@@]1(COC4=O)C1=C2c2c(C)cc(O)c3c(=O)n(-c4ccccc4Cl)cc(c23)C1=O` it is 38.8 µM; for `COc1cc(-n2cc3c4c(c(C)cc(O)c4c2=O)C2=C(C3=O)[C@]34COC(=O)c5c(O)cc(C)c(c53)C(=O)[C@H]2[C@@H]4OC(C)=O)cc(OC)c1OC` it is 52.4 µM.
For the compound `CC(=O)O[C@H]1[C@@H]2C(=O)c3c(C)cc(O)c4c3[C@@]1(COC4=O)C1=C2c2c(C)cc(O)c3c(=O)n(-c4ccc(O)cc4)cc(c23)C1=O`, inhibition was half-maximal at 23.7 µM (IC50).
In turn, `CO[C@@H]1OC(=O)c2c(O)cc(C)c3c4c(c(O)c1c23)[C@]12COC(=O)c3c(O)cc(C)c(c31)C(=O)[C@H]4[C@@H]2OC(C)=O` had an IC50 of 12.6 µM.
Consider `CC(=O)O[C@H]1[C@@H]2C(=O)c3c(C)cc(O)c4c3[C@@]1(COC4=O)C1=C2c2c(C)cc(O)c3c(=O)n(-c4cccc(Cl)c4)cc(c23)C1=O`, for which half-maximal inhibition (IC50) required 23.7 µM.
In turn, `CO[C@@]12c3c(C)cc(O)c4c(=O)n(-c5cccc(Cl)c5)cc(c34)C(=O)[C@@H]1[C@]13COC(=O)c4c(O)cc(C)c(c41)C(=O)[C@H]2[C@@H]3OC(C)=O` had an IC50 of 73.1 µM.
The same measure, in the same setting: the figure for `CC(=O)O[C@H]1[C@@H]2C(=O)c3c(C)cc(O)c4c3[C@@]1(COC4=O)C1=C2c2c(C)cc(O)c3c(=O)n(-c4ccc(Cl)cc4)cc(c23)C1=O` is 13.9 µM; for `CC(=O)O[C@H]1[C@@H]2C(=O)c3c(C)cc(O)c4c3[C@@]1(COC4=O)C1=C2c2c(C)cc(O)c3c(=O)n(-c4cccc5cccnc45)cc(c23)C1=O` it is 6.4 µM; for `CC(=O)O[C@H]1[C@@H]2C(=O)c3c(C)cc(O)c4c3[C@@]1(COC4=O)C1=C2c2c(C)cc(O)c3c(=O)n(-c4cccnc4)cc(c23)C1=O` it is 56.9 µM.
Regarding `CC(=O)O[C@H]1[C@@H]2C(=O)c3c(C)cc(O)c4c3[C@@]1(COC4=O)C1=C2c2c(C)cc(O)c3c(=O)n(-c4cccc([N+](=O)[O-])c4)cc(c23)C1=O`, the IC50 was found to be 8 µM.
Still for that read-out and setting: the figure for `CC(=O)O[C@H]1[C@@H]2C(=O)c3c(C)cc(O)c4c3[C@@]1(COC4=O)c1c(O)c3c4c(c(O)cc(C)c4c12)C(=O)O3` is 82.1 µM; for `CC(=O)O[C@H]1[C@@H]2C(=O)c3c(C)cc(O)c4c3[C@@]1(COC4=O)C1=C2c2c(C)cc(O)c3c(=O)n(-c4ccccc4F)cc(c23)C1=O` it is 35 µM.
On the same count and under the same terms, to `CC(=O)O[C@H]1[C@@H]2C(=O)c3c(C)cc(O)c4c3[C@@]1(COC4=O)C1=C2c2c(C)cc(O)c3c(=O)n(-c4ccccc4)cc(c23)C1=O` belongs 78.4 µM; to `CCOC(=O)[C@H](Cc1ccccc1)n1cc2c3c(c(C)cc(O)c3c1=O)[C@]1(OC)[C@H](C2=O)[C@]23COC(=O)c4c(O)cc(C)c(c42)C(=O)[C@H]1[C@@H]3OC(C)=O`, 55.6 µM.
In turn, `COc1ccc(-n2cc3c4c(c(C)cc(O)c4c2=O)C2=C(C3=O)[C@]34COC(=O)c5c(O)cc(C)c(c53)C(=O)[C@H]2[C@@H]4OC(C)=O)cc1` came in with an IC50 of 14.7 µM.
On the same count and under the same terms, the figure for `CO[C@@]12c3c(C)cc(O)c4c(=O)n(-c5ccc(C)cc5)cc(c34)C(=O)[C@@H]1[C@]13COC(=O)c4c(O)cc(C)c(c41)C(=O)[C@H]2[C@@H]3OC(C)=O` is 35.3 µM; for `CC(=O)O[C@H]1[C@@H]2C(=O)c3c(C)cc(O)c4c3[C@@]1(COC4=O)C1=C2c2c(C)cc(O)c3c(=O)n(-c4ccc(I)cc4)cc(c23)C1=O` it is 13 µM; for `CC(=O)O[C@H]1[C@@H]2C(=O)c3c(C)cc(O)c4c3[C@@]1(COC4=O)C1=C2c2c(C)cc(O)c3c(=O)n(-c4ccc(O)cc4[N+](=O)[O-])cc(c23)C1=O` it is 31.6 µM.
`CC(=O)O[C@H]1[C@@H]2C(=O)c3c(C)cc(O)c4c3[C@@]1(COC4=O)C1=C2c2c(C)cc(O)c3c(=O)n(-c4ccccn4)cc(c23)C1=O` registered an IC50 of 36.4 µM.
Turning to `CO[C@@]12c3c(C)cc(O)c4c(=O)n(-c5cccc([N+](=O)[O-])c5)cc(c34)C(=O)[C@@H]1[C@]13COC(=O)c4c(O)cc(C)c(c41)C(=O)[C@H]2[C@@H]3OC(C)=O`, the IC50 was 12.3 µM.
Regarding `CC(=O)O[C@H]1[C@@H]2C(=O)c3c(C)cc(O)c4c3[C@@]1(COC4=O)C1=C2c2c(C)cc(O)c3c(=O)n(-c4ccc5ncccc5c4)cc(c23)C1=O`, inhibition was half-maximal at 5.7 µM (IC50).
As for `CC(=O)O[C@H]1[C@@H]2C(=O)c3c(C)cc(O)c4c3[C@@]1(COC4=O)C1=C2c2c(C)cc(O)c3c(=O)n(-c4ccc(Br)cc4)cc(c23)C1=O`, the IC50 stood at 9.3 µM.
As to `CO[C@@]12c3c(C)cc(O)c4c3C(=C(O)[C@@H]1[C@]13COC(=O)c5c(O)cc(C)c(c51)C(=O)[C@H]2[C@@H]3OC(C)=O)C=NC4=O`, the IC50 is 23.7 µM.
The same measure, in the same setting: the figure for `CC(=O)O[C@H]1[C@@H]2C(=O)c3c(C)cc(O)c4c3[C@@]1(COC4=O)C1=C2c2c(C)cc(O)c3c(=O)n(-c4cccc5ncccc45)cc(c23)C1=O` is 15.9 µM.
Take `CC(=O)O[C@H]1[C@@H]2C(=O)c3c(C)cc(O)c4c3[C@@]1(COC4=O)C1=C2c2c(C)cc(O)c3c(=O)n(-c4ccc(C)cc4)cc(c23)C1=O`: the 50% inhibitory concentration (IC50) turned out to be 3.2 µM.
`CO[C@@]12c3c(C)cc(O)c4c(=O)n(CC(=O)O)cc(c34)C(=O)[C@@H]1[C@]13COC(=O)c4c(O)cc(C)c(c41)C(=O)[C@H]2[C@@H]3OC(C)=O` displayed an IC50 of 13.5 µM.
The compound `CC(=O)O[C@H]1[C@@H]2C(=O)c3c(C)cc(O)c4c3[C@@]1(COC4=O)C1=C2c2c(C)cc(O)c3c(=O)[nH]cc(c23)C1=O` gave an IC50 of 36.6 µM.
The compound `CO[C@H]1OC(=O)c2c(O)cc(C)c3c4c(c(O)c1c23)[C@]12COC(=O)c3c(O)cc(C)c(c31)C(=O)[C@H]4[C@@H]2OC(C)=O` came in with an IC50 of 38 µM.
Consider `COc1ccc(-n2cc3c4c(c(C)cc(O)c4c2=O)C2=C(C3=O)[C@]34COC(=O)c5c(O)cc(C)c(c53)C(=O)[C@H]2[C@@H]4OC(C)=O)cc1OC`, for which the midpoint of inhibition, the IC50, lay at 16.9 µM.
The same measure, in the same setting: to `CC(=O)O[C@H]1[C@@H]2C(=O)c3c(C)cc(O)c4c3[C@@]1(COC4=O)c1c(O)c3c4c(c(O)cc(C)c4c12)C(=O)OC3=O` belongs 21.9 µM; to `CC(=O)O[C@H]1[C@@H]2C(=O)c3c(C)cc(O)c4c3[C@@]1(COC4=O)C1=C2c2c(C)cc(O)c3c(=O)n(-c4ccccc4[N+](=O)[O-])cc(c23)C1=O`, 27.2 µM; to `CCOC(=O)[C@H](Cc1ccccc1)n1cc2c3c(c(C)cc(O)c3c1=O)C1=C(C2=O)[C@]23COC(=O)c4c(O)cc(C)c(c42)C(=O)[C@H]1[C@@H]3OC(C)=O`, 22.9 µM.

In a further assay the target is T2, Tyrosine-protein phosphatase non-receptor type 1 (Homo sapiens) (UniProt P18031).
T2 sequence (whole entry): T1 sequence (P18031 whole entry)
Put plainly: Inhibition of wild type N-terminal 6 his tagged human PTP1B (1 to 400 residues) expressed in Escherichia coli (Rosetta, DE3) using p-NPP as substrate at 100 uM preincubated for 10 mins followed by substrate addition and measured after 20 mins by absorbance based analysis. The settings on record: time 30.0 min.
With `CO[C@@]12c3c(C)cc(O)c4c(=O)n(-c5ccccc5)cc(c34)C(=O)[C@@H]1[C@]13COC(=O)c4c(O)cc(C)c(c41)C(=O)[C@H]2[C@@H]3OC(C)=O`, the inhibition result was “inactive”.
`CO[C@@]12c3c(C)cc(O)c4c(=O)n([C@@H](CC(=O)O)C(=O)O)cc(c34)C(=O)[C@@H]1[C@]13COC(=O)c4c(O)cc(C)c(c41)C(=O)[C@H]2[C@@H]3OC(C)=O`: the inhibition result was “inactive”.
As to `CO[C@@]12c3c(C)cc(O)c4c(=O)n([C@H](C(=O)O)C(C)C)cc(c34)C(=O)[C@@H]1[C@]13COC(=O)c4c(O)cc(C)c(c41)C(=O)[C@H]2[C@@H]3OC(C)=O`, the inhibition result is “inactive”.

The target of the next assay is T2, Tyrosine-protein phosphatase non-receptor type 1 (Homo sapiens). Put plainly: Binding affinity to wild type N-terminal 6 his tagged human PTP1B (1 to 400 residues) expressed in Escherichia coli (Rosetta, DE3) assessed as affinity constant by fluorescence based analysis.
Settings: not given
As to `CO[C@@]12c3c(C)cc(O)c4c(=O)n(-c5ccc([N+](=O)[O-])cc5)cc(c34)C(=O)[C@@H]1[C@]13COC(=O)c4c(O)cc(C)c(c41)C(=O)[C@H]2[C@@H]3OC(C)=O`, the Ka is 2.1 10^5/M.
